Experimental data as given in US9296725B2, “Heterocyclyl pyrimidine analogues as TYK2 inhibitors” (Cellzome Limited, priority 2012, dated 2016).
Like-named read-outs stand apart in the source and are kept apart here.

How the values were obtained:
TYK2 = target: T1, TYK2 (Homo sapiens, UniProt P29597); assay: Kinobeads assay, TYK2 (competition binding in mixed Molt4/Ramos cell lysate, dot blot detection)
T1 construct: endogenous in cells; host or cells: Molt4 (ATCC CRL-1582) and Ramos (ATCC CRL-1596), mixed lysate 1:2
Description: (§1) The compounds of the present invention as described in the previous examples were tested in a Kinobeads™ assay as described for ZAP-70 (WO-A 2007/137867). Briefly, test compounds (at various concentrations) and the affinity matrix with the immobilized aminopyrido-pyrimidine ligand 24 were added to cell lysate aliquots and allowed to bind to the proteins in 10 the lysate sample. After the incubation time the beads with captured proteins were separated from the lysate. Bound proteins were then eluted and the presence of TYK2 and JAK2 was detected and quantified using specific antibodies in a dot blot procedure and the Odyssey infrared detection system. Dose response curves for individual kinases were generated and IC50 values calculated. Kinobeads™ assays have been previously described (WO-A 2007/137867; WO-A 2006/134056).
(§2) The affinity matrix was washed two times with 15 mL of 1×DP buffer containing 0.2% NP40 (IGEPAL® CA-630, Sigma, #13021) and then resuspended in 1×DP buffer containing 0.2% NP40 (3% beads slurry). 5×DP buffer: 250 mM Tris-HCl pH 7.4, 25% Glycerol, 7.5 mM MgCl2, 750 mM NaCl, 5 mM Na3VO4; filter the 5×DP buffer through a 0.22 μm filter and store in aliquots at −80° C. The 5×DP buffer is diluted with H2O to 1×DP buffer containing 1 mM DTT and 25 mM NaF.
(§3) Stock solutions of test compounds were prepared in DMSO. In a 96 well plate 30 μL solution of diluted test compounds at 5 mM in DMSO were prepared. Starting with this solution a 1:3 dilution series (9 steps) was prepared. For control experiments (no test compound) a buffer containing 2% DMSO was used.
(§4) Molt4 cells (ATCC catalogue number CRL-1582) and Ramos cells (ATCC catalogue number CRL-1596) were grown in 1 L Spinner flasks (Integra Biosciences, #182101) in suspension in RPMI 1640 medium (Invitrogen, #21875-034) supplemented with 10% Fetal Bovine Serum (Invitrogen) at a density between 0.15×10^6 and 1.2×10^6 cells/mL. Cells were harvested by centrifugation, washed once with 1×PBS buffer (Invitrogen, #14190-094) and cell pellets were frozen in liquid nitrogen and subsequently stored at −80° C. Cells were homogenized in a Potter S homogenizer in lysis buffer: 50 mM Tris-HCl, 0.8% NP40, 5% glycerol, 150 mM NaCl, 1.5 mM MgCl2, 25 mM NaF, 1 mM sodium vanadate, 1 mM DTT, pH 7.5. One complete EDTA-free tablet (protease inhibitor cocktail, Roche Diagnostics, 1873580) per 25 mL buffer was added. The material was dounced 10 times using a mechanized POTTER S, transferred to 50 mL falcon tubes, incubated for 30 minutes on ice and spun down for 10 minutes at 20,000 g at 4° C. (10,000 rpm in Sorvall SLA600, precooled). The supernatant was transferred to an ultracentrifuge (UZ)-polycarbonate tube (Beckmann, 355654) and spun for 1 hour at 100.000 g at 4° C. (33.500 rpm in Ti50.2, precooled). The supernatant was transferred again to a fresh 50 mL falcon tube, the protein concentration was determined by a Bradford assay (BioRad) and samples containing 50 mg of protein per aliquot were prepared. The samples were immediately used for experiments or frozen in liquid nitrogen and stored frozen at −80° C.
(§5) Cell lysate (approximately 50 mg protein per plate) was thawed in a water bath at room temperature and then stored on ice. To the thawed cell lysate 1×DP 0.8% NP40 buffer containing protease inhibitors (1 tablet for 25 mL buffer; EDTA-free protease inhibitor cocktail; Roche Diagnostics 1873580) was added in order to reach a final protein concentration of 10 mg/mL total protein. The diluted cell lysate was stored on ice. Mixed Molt4/Ramos lysate was prepared by combining one volume of Molt4 lysate and two volumes of Ramos lysate (ratio 1:2).
(§6) To a 96 well filter plate (Multiscreen HTS, BV Filter Plates, Millipore #MSBVN1250) were added per well: 100 μL affinity matrix (3% beads slurry), 3 μL of compound solution, and 50 μL of diluted lysate. Plates were sealed and incubated for 3 hours in a cold room on a plate shaker (Heidolph tiramax 1000) at 750 rpm. […]

JAK2 = target: T2, JAK2 (Homo sapiens, UniProt O60674); assay: Kinobeads assay, JAK2 (competition binding in mixed Molt4/Ramos cell lysate, dot blot detection); details: read-out: JAK2 Band (Kinobeads assay potency, IC50)
T2 construct: endogenous in cells; host or cells: Molt4 (ATCC CRL-1582) and Ramos (ATCC CRL-1596), mixed lysate 1:2
Description: as §1, §2, §3, §4, §5, §6

[1] = Kinobeads assay, Molt4/Ramos lysate, read-out: TYK2 Band (Kinobeads assay potency, IC50)

T2 sequence (O60674 whole entry): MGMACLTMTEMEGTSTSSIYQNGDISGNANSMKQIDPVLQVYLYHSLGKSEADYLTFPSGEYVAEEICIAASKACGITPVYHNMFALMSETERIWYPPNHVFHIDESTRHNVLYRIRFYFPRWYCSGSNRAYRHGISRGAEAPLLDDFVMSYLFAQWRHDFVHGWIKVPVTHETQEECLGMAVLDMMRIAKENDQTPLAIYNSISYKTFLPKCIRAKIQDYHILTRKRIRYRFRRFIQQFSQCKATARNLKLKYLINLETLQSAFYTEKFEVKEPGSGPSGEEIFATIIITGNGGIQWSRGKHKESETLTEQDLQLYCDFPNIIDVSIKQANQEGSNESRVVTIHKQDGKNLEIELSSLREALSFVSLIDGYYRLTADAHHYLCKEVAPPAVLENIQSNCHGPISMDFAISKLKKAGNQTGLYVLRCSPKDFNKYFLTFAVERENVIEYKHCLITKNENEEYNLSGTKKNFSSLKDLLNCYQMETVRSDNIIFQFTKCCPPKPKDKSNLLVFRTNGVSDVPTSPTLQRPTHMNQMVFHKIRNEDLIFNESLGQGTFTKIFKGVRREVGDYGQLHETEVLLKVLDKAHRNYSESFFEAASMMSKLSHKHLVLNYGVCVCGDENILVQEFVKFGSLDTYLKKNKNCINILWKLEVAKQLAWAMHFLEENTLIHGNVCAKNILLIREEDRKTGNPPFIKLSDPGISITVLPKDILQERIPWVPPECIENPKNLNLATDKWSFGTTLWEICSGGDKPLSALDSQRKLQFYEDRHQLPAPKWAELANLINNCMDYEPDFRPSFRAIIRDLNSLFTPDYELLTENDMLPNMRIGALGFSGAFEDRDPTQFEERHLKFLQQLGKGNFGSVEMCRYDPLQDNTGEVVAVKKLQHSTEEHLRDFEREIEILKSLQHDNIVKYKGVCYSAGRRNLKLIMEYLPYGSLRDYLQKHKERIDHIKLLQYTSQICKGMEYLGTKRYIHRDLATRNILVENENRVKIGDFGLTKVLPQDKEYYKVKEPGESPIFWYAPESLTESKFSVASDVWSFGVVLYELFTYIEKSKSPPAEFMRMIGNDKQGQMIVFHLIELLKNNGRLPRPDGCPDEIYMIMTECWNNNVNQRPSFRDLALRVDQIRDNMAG
T1 sequence (P29597 whole entry): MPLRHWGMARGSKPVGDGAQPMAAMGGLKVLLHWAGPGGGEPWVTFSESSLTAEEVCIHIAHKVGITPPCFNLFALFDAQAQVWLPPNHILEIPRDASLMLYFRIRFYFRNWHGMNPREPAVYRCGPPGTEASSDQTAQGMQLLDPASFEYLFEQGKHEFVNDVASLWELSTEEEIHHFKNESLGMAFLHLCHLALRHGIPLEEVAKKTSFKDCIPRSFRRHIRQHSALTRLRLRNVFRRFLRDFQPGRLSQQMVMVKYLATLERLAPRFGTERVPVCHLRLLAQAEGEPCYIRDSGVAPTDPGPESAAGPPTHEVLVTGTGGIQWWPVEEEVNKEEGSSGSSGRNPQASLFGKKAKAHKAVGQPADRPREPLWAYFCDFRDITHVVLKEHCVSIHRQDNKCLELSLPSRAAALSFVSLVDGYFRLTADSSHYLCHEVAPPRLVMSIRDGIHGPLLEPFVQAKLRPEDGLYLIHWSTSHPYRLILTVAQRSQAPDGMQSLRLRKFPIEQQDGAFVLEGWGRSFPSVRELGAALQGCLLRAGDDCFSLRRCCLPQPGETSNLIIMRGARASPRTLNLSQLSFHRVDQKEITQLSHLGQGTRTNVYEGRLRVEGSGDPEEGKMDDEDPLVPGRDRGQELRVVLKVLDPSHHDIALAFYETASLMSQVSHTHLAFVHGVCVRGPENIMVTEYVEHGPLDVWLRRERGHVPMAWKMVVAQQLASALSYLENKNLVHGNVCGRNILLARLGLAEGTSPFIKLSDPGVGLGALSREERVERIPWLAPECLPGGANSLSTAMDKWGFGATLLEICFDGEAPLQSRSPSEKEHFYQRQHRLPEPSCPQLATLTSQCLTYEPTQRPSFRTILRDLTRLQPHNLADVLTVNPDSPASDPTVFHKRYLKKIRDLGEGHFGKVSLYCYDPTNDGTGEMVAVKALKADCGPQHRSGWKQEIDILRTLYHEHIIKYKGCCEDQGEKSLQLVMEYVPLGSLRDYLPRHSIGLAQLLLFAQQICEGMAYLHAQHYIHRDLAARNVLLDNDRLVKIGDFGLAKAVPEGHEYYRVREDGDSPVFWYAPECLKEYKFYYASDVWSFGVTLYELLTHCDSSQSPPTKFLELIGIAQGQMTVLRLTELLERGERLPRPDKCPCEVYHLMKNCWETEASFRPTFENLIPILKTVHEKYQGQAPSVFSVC

Row | IC50 (TYK2; [1]) [µM] | IC50 (JAK2) [µM] | IC50 (TYK2; read-out: TYK2 IC50) [µM] | Compound
1 | 0.01 to 0.1 | 0.1 to 1 |  | OCCn1cc(Nc2ncc(Cl)c(NCc3ccccc3)n2)cn1 [Example I-192]
2 | 0.01 to 0.1 | 1 to 10 |  | NS(=O)(=O)c1ccc(F)c(CNc2nc(Nc3cnn(CCO)c3)ncc2Cl)c1 [Example I-226]
3 | ≤ 0.01 | 1 to 10 |  | O=C(Cn1cc(Nc2nccc(NCc3c(F)cccc3F)n2)cn1)N1CCOCC1 [Example I-28]
4 | 0.01 to 0.1 | 1 to 10 | < 0.1 | Fc1cc(F)c(CNc2ccnc(Nc3cnn(CCN4CCOCC4)c3)n2)c(F)c1 [Example I-112]
5 | 1 to 10 | 1 to 10 |  | COc1c(F)cc(F)cc1CNc1nc(Nc2cnn(CC(F)(F)F)c2)ncc1C [Example I-352]
6 | 0.01 to 0.1 | 1 to 10 |  | Cn1cc(Nc2ncc(Cl)c(NCc3cccc(C#N)c3)n2)cn1 [Example I-159]
7 | 0.1 to 1 | 1 to 10 |  | N#CCNC(=O)c1cccc(CNc2nc(Nc3cnn(CCO)c3)ncc2Cl)c1 [Example I-242]
8 | 0.01 to 0.1 | > 10 |  | O=C(Cn1cc(Nc2nccc(NCc3c(F)cc(F)cc3F)n2)cn1)NC1CC1(F)F (stereo not shown) [Example I-91]
9 | 0.01 to 0.1 | 0.1 to 1 |  | CCOc1ccc(F)c(CNc2nc(Nc3cnn(CCO)c3)ncc2Cl)c1F [Example I-358]
10 | 0.1 to 1 | 1 to 10 |  | CN(C)C(=O)Cn1cc(Nc2ncc(Cl)c(NCc3cccc(C(N)=O)c3)n2)cn1 [Example I-390]
11 | 0.01 to 0.1 | 0.1 to 1 |  | Cc1cnc(Nc2cnn(CC(=O)NC3CC3)c2)nc1NCc1cc(F)ccc1F [Example I-346]
12 | 0.01 to 0.1 | 1 to 10 |  | NC(=O)Cn1cc(Nc2nccc(NCc3c(F)cc(F)cc3F)n2)cn1 [Example I-311]
13 | 0.01 to 0.1 | 1 to 10 |  | CNC(=O)Cn1cc(Nc2ncc(Cl)c(NCc3c(F)cc(F)cc3F)n2)cn1 [Example I-388]
14 | 0.1 to 1 | 0.1 to 1 |  | CC(CO)n1cc(Nc2ncc(Cl)c(NCc3ccccc3)n2)cn1 (stereo not shown) [Example I-361]
15 | 0.01 to 0.1 | 1 to 10 |  | CC(C)NC(=O)Cn1cc(Nc2ncc(Cl)c(NCc3cccc(OC(F)F)c3)n2)cn1 [Example I-391]
16 | 0.1 to 1 | 0.1 to 1 |  | Cc1scnc1Cn1cc(Nc2ncc(Cl)c(NCc3c(F)cccc3F)n2)cn1 [Example I-484]
17 | 0.01 to 0.1 | 1 to 10 |  | OCCn1cc(Nc2ncc(F)c(NCc3c(F)cc(F)cc3F)n2)cn1 [Example I-17]
18 | 0.1 to 1 | 0.1 to 1 |  | C[C@H](O)Cn1cc(Nc2ncc(Cl)c(NCc3ccccc3F)n2)cn1 [Example I-257]
19 | 0.1 to 1 | 1 to 10 |  | O=C(O)Cn1cc(Nc2ncc(Cl)c(NCc3ccccc3)n2)cn1 [Example I-222]
20 | 0.1 to 1 | 1 to 10 |  | N#C[C@@H]1CCCN1C(=O)Cn1cc(Nc2ncc(Cl)c(NCc3ccccc3)n2)cn1 [Example I-272]
21 | 0.01 to 0.1 | 1 to 10 |  | CN(C)C(=O)Cn1cc(Nc2ncc(F)c(NCc3c(F)ccc(F)c3F)n2)cn1 [Example I-411]
22 | ≤ 0.01 | 1 to 10 |  | Cc1cnc(Nc2cnn(CC(=O)NC(C)C)c2)nc1NCc1c(F)cc(F)cc1F [Example I-32]
23 | ≤ 0.01 | 1 to 10 |  | COc1ccc(Cl)c(CNc2ccnc(Nc3cnn(CC(=O)NC(C)C)c3)n2)c1F [Example I-79]

The next lines start with the compound.

Row | Compound | IC50 (TYK2; [1]) [µM] | IC50 (JAK2) [µM] | IC50 (TYK2; read-out: TYK2 IC50) [µM]
24 | Cc1cnc(Nc2cnn(CC(F)F)c2)nc1NCc1c(F)ccc(F)c1F [Example I-87] | 0.01 to 0.1 | 0.1 to 1 | 
25 | CC(NC(=O)Cn1cc(Nc2nccc(NCc3c(F)cc(F)cc3F)n2)cn1)C(F)F (stereo not shown) [Example I-149] | 0.01 to 0.1 | > 10 | 
26 | C[C@H](CO)NC(=O)Cn1cc(Nc2nccc(NCc3c(F)cncc3F)n2)cn1 [Example I-147] | 0.01 to 0.1 | > 10 | 
27 | CCOc1cccc(CNc2nc(Nc3cnn(CCO)c3)ncc2Cl)c1 [Example I-294] | 0.1 to 1 | 1 to 10 | 
28 | CC(C(N)=O)n1cc(Nc2ncc(Cl)c(NCc3ccccc3)n2)cn1 (stereo not shown) [Example I-285] | 0.1 to 1 | 1 to 10 | 
29 | CNC(=O)Cn1cc(Nc2ncc(Cl)c(NCc3ccccc3)n2)cn1 [Example I-195] | 0.1 to 1 | 1 to 10 | 
30 | COc1ccccc1CNc1nc(Nc2cnn(C)c2)ncc1Cl [Example I-228] | 0.1 to 1 | 1 to 10 | 
31 | Cc1cccc(F)c1CNc1ccnc(Nc2cnn(CC(=O)NC(C)C)c2)n1 [Example I-155] | ≤ 0.01 | 1 to 10 | 
32 | CC(C)NC(=O)Cn1cc(Nc2nccc(NCc3c(F)ccc(F)c3F)n2)cn1 [Example I-63] | ≤ 0.01 | 1 to 10 | 
33 | COc1ccc(F)c(CNc2nc(Nc3cnn(CC(=O)N(C)C)c3)ncc2Cl)c1F [Example I-376] | 0.01 to 0.1 | 0.1 to 1 | 
34 | CS(=O)(=O)NCc1cccc(CNc2nc(Nc3cnn(CCO)c3)ncc2F)c1 [Example I-415] | 0.1 to 1 | 1 to 10 | 
35 | N#C[C@@H]1CCN(C(=O)Cn2cc(Nc3ncc(Cl)c(NCc4ccccc4)n3)cn2)C1 [Example I-271] | 0.01 to 0.1 | 0.1 to 1 | 
36 | C[C@H](C(N)=O)n1cc(Nc2ncc(Cl)c(NCc3ccccc3)n2)cn1 [Example I-290] | 0.1 to 1 | 1 to 10 | 
37 | CN(C)S(=O)(=O)c1ccccc1CNc1nc(Nc2cnn(C)c2)ncc1Cl [Example I-474] | 0.1 to 1 | 0.1 to 1 | 
38 | Cn1cc(Nc2ncc(F)c(NCc3cccc(F)c3F)n2)cn1 [Example I-177] | 0.1 to 1 | 1 to 10 | 
39 | OCCn1cc(Nc2ncc(Cl)c(NCc3cc(Br)ccc3F)n2)cn1 [Example I-164] | 0.01 to 0.1 | 0.1 to 1 | 
40 | C[C@@H](CO)NC(=O)Cn1cc(Nc2nccc(NCc3c(F)cccc3Cl)n2)cn1 [Example I-120] | ≤ 0.01 | 1 to 10 | 
41 | Cc1cnc(Nc2cnn(CCC(F)(F)F)c2)nc1NCc1cc(F)cc(F)c1 [Example I-463] | 1 to 10 | 1 to 10 | 
42 | COc1ccc(F)c(CNc2ccnc(Nc3cnn(CC(=O)NC(C)C)c3)n2)c1F [Example I-65] | 0.01 to 0.1 | 1 to 10 | < 0.1
43 | Cc1noc(Cn2cc(Nc3ncc(Cl)c(NCc4c(F)cccc4F)n3)cn2)n1 [Example I-483] | 0.1 to 1 | 1 to 10 | 
44 | CC(C)NC(=O)Cn1cc(Nc2nccc(NCc3c(Cl)ccc(Cl)c3F)n2)cn1 [Example I-78] | ≤ 0.01 | 0.1 to 1 | 
45 | [2H]C([2H])(O)C([2H])([2H])n1cc(Nc2ncc(Cl)c(NCc3cccc(F)c3F)n2)cn1 [Example I-233] | 0.1 to 1 | 1 to 10 | 
46 | OCCn1cc(Nc2ncc(Cl)c(NCc3cccc(F)c3)n2)cn1 [Example I-171] | 0.01 to 0.1 | 0.1 to 1 | 
47 | N#Cc1c(F)cccc1CNc1nc(Nc2cnn(CCO)c2)ncc1Cl [Example I-287] | 0.1 to 1 | 0.1 to 1 | 
48 | COc1ccc(F)c(CNc2nc(Nc3cnn(CC(=O)N4CCOCC4)c3)ncc2Cl)c1F [Example I-377] | 0.01 to 0.1 | 0.1 to 1 | 
49 | CC(C)N(C)C(=O)Cn1cc(Nc2ncc(F)c(NCc3cccc(OC(F)F)c3)n2)cn1 [Example I-56] | 0.01 to 0.1 | > 10 | 
